# Where “and” joins values, the source holds several entries; their conditions need not be identical. Identical values can stand only once.
# What was measured:
# [1] = tested on: tetracycline resistant strain of P. aeruginosa; assay: Checkerboard potentiation assay with tetracycline; type: cell-based; details: for FP* (Fold Potentiation, EC50): EC50 tetracycline with no TPI/with TPI; for FP* (Fold Potentiation, EC50) / FP^# (Fold Potentiation, EC90): 25 μg mL^−1 TPI; for FP^# (Fold Potentiation, EC90): EC90 tetracycline with no TPI/with TPI; for FP*^c (Fold Potentiation, EC50): Table 1, tetracycline EC50; for FP^#c (Fold Potentiation, EC90): Table 1, tetracycline EC90; for TPI (inhibitory concentration of the polyamines alone to produce EC values): polyamine alone, no tetracycline, 25 μg mL^−1 highest concentration tested
# Procedure: (§1) The bacterial strains used in this study are multi-drug resistant clinical isolates that have previously been described (TABLE 2) (Fleeman, et al. J. Med. Chem. 2015, 58, 3340-3355). Organisms were grown in tryptic soy broth (TSB) for overnight cultures, and cation adjusted Mueller Hinton broth (CA-MH II) was used for experimental procedures. All incubations were performed at 37° C.
# (§2) Scaffold ranking library samples and individual polyamines were screened using checkerboard inhibitory assays to assess the potentiation of tetracycline and chloramphenicol. The test utilized a 96-well plate microtiter assay where the concentration of the scaffold or individual polyamine was decreased from 25 μg mL^−1 to 0.8 μg mL^−1 (average molarity of 65 μM to 4 μM) along the rows, and the concentration of tetracycline or chloramphenicol was increased from 0.4 μM to 100 μM across the columns. Plates were incubated statically at 37° C. for 20 hours, and the optical density (OD600) was determined using a Synergy 2 plate reader (Biotek). Potentiation modeling (detailed below) was performed to determine fold change in the 50% and 90% effective concentration of tetracycline or chloramphenicol.
# Potentiation was quantified using a mathematical model developed by our group to assess the ability of library samples and individual compounds to effectively enhance the activity of tetracycline or chloramphenicol (Hoel, D. G. Statistical Aspects of Chemical Mixtures. Methods for assessing the effects of mixtures of chemicals. 1987, New York). […] In this way, only libraries and compounds that potentiated tetracycline or chloramphenicol activity were pursued. The model is based on the following equation for modeling the percentage activity of a mixture of two agents with independent action (Hoel, et al. Statistical Aspects of Chemical Mixtures. Methods for assessing the effects of mixtures of chemicals. 1987, New York): %Antibiotic & Comp(x1,x2)=%Antibiotic(x1)+%Comp(x2)−%Antibiotic(x1)·%Comp(x2)
# Here, x1 and x2 are the concentrations of antibiotic (tetracycline or chloramphenicol) and library/compound (Comp) tested, respectively. This equation can be rearranged to model the effective percent activity (EC) of the antibiotic alone, after accounting for compound activity:
# [formula] Thus, the model-adjusted checkerboards show the antibiotic activity post-potentiation, and from that one can determine the true change in MIC.
# [2] = tested on: HepG2 cells; assay: MTT cytotoxicity assay; type: cell-based, human; details: 25 μg mL^−1 (highest concentration tested), 48 hours
# Procedure: (§3) To assess toxicity of polyamine compounds we used HepG2 human liver carcinoma cells and Hek293T human embryonic kidney epithelial cells. […] J. Med. Chem. 2015, 58, 3340-3355). […] Cells were then incubated for 48 hours at 37° C. with 5% CO2. Following this, viability was assessed by the addition of MTT and measuring the OD570 in a Biotek plate reader. Percent recovery was determined compared to no drug controls.
# [3] = tested on: P. aeruginosa; assay: Bactericidal assessment with tetracycline; type: cell-based
# Procedure: (§4) Lead agents were screened for bactericidal activity as described previously (Van Horn, et al. J. Med. Chem. 2014, 57, 3075-3093; […], et al. J. Med. Chem. 2015, 58, 3340-3355), with the following modifications. […] Biofilm experiments were performed similar to those described previously ([…], et al. J. Med. Chem. 2015, 58, 3340-3355; von Salm, et al. Org. Lett. 2016, 18, 2596-2599), with the following modifications.
# [4] = tested on: P. aeruginosa biofilm; assay: Pre-formed biofilm viability assessment with tetracycline; type: cell-based; details: for biofilm cells recovered, EPI alone: 25 μg mL^−1 (MPC), no tetracycline;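 on biofilm recovery, combination treatment: percent recovery versus no treatment controls after 20 Hours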
# Procedure: as §4
# [5] = tested on: P. aeruginosa cells; assay: Bacterial membrane depolarization (DiSC3 dye); type: cell-based; details: 25 μg mL^−1
# Procedure: To determine the level of membrane depolarization by polyamine compounds a 3,3′-dipropylthiadicarbocyanine Iodide (DiSC3) fluorescence dye was used. Exponentially growing cultures were prepared as described above, before being harvested by centrifugation. Cells were next washed in buffer A (5 mM HEPES pH 7.2, 5 mM glucose) and resuspended to an OD600 of 0.2 in the same buffer containing 100 mM KCl and 2 μM DiSC3. Samples were allowed to equilibrate for 15 minutes at room temperature to ensure uptake and quenching of the dye in bacterial membranes. Cells were aliquoted into 96-well plates and polyamines were added alongside the known efflux inhibitor PAN (all at 25 μg mL^−1). Nisin (25 μg mL^−1) was used as a positive control to display depolarization effects. A Biotek plate reader was used to monitor fluorescence of wells, with a 622 nm excitation and 670 nm emission. For graphical representation, the maximum relative fluorescence at 2 minutes was used for comparison of lead agents to controls.
# [6] = tested on: P. aeruginosa; assay: Checkerboard potentiation assay with chloramphenicol; type: cell-based; details: increasing EPI concentration, dose response
# Procedure: as §1
# as §2, with “Potentiation modeling (detailed below) was performed to determine fold change in the 50% and 90% effective concentration of tetracycline or chloramphenicol.” left out
# Potentiation was quantified using a mathematical model developed by our group to assess the ability of library samples and individual compounds to effectively enhance the activity of tetracycline or chloramphenicol (Hoel, D. G. Statistical Aspects of Chemical Mixtures. Methods for assessing the effects of mixtures of chemicals. 1987, New York). […]
# [7] = tested on: Hek293T cells; assay: MTT cytotoxicity assay; type: cell-based, human; details: 25 μg mL^−1, 48 hours
# Procedure: as §3
# [8] = 12 μM tetracycline + MPC of EPI
# [9] = 50 μM tetracycline + MPC of EPI
# [10] = 25 μM tetracycline + MPC of EPI
SMILES,"FP* (Fold Potentiation, EC50) [1]","FP^# (Fold Potentiation, EC90) [1]","FP*^c (Fold Potentiation, EC50) [1]","FP^#c (Fold Potentiation, EC90) [1]",TPI (inhibitory concentration of the polyamines alone to produce EC values) [1],HepG2 cell viability / recovery [2],"percent recovery, combination treatment [3, 8]","percent recovery, combination treatment [3, 9]","biofilm recovery, combination treatment [4, 10]","biofilm cells recovered, EPI alone [4]","biofilm recovery, combination treatment [4, 9]",change in DiSC3 fluorescence (membrane depolarization) [5],potentiation of chloramphenicol EC90 [6],percent recovery of Hek293T cells compared to solvent only controls [7],"biofilm recovery, combination treatment [4, 8]","improvement of tetracycline alone biofilm eradication [4, 8]"
"NCCC[C@@H](CN[C@H](CN)Cc1ccccc1)NCCc1ccccc1 [TPI 314, (S)—N^1—((S)-1-amino-3-phenylpropan-2-yl)-N^2-phenethylpentane-1,2,5-triamine]",5 fold,7.5 fold,5 fold and 5.0 fold,7.5 fold,>25 µg/mL,77%,5.3%,0.01%,1%,99.99%,0.6%,–,–,–,–,–
"COC(=O)[C@H]1[C@H]2C[C@@H]3c4[nH]c5cc(OC)ccc5c4CCN3C[C@H]2C[C@@H](OC(=O)c2cc(OC)c(OC)c(OC)c2)[C@@H]1OC [Reserpine, reference compound]",–,–,–,1 fold,–,–,–,–,–,–,–,–,–,–,–,–
O=C(N[C@H](CO)[C@H](O)c1ccc([N+](=O)[O-])cc1)C(Cl)Cl [chloramphenicol],–,–,–,–,–,–,–,–,–,–,–,decreased in florescence,–,–,–,–
"CNCCCC[C@H](CN)NC[C@H](Cc1ccccc1)NCCc1ccccc1 [TPI 266, (R)—N^6-methyl-N^2—((S)-2-(phenethylamino)-3-phenylpropyl)hexane-1,2,6-triamine]",6.8 fold,5.8 fold,6.8 fold,5.8 fold,>25 µg/mL,–,0.76%,0.01%,1%,92%,0.6%,–,highest potentiation values,72%,–,–
"NCC[C@@H](CN)NC[C@H](Cc1ccccc1)NCCc1ccccc1 [TPI 250, (S)—N^2—((S)-2-(phenethylamino)-3-phenylpropyl)butane-1,2,4-triamine]",7 fold,7.8 fold,7.0 fold,7.8 fold,>25 µg/mL,80%,2.2%,0.01%,1%,99.99%,0.5%,–,–,–,21%,67%
